Patent publication US9504251B2, “Pesticidal compositions and related methods” (Dow AgroSciences LLC, priority 2014, dated 2016)
Where two headings read alike, the source gives them in different places.

Experiments:
[1] = test system: Green Peach Aphid (Myzus persicae) (GPA) (MYZUPE); experiment: Green peach aphid (GPA) foliar spray bioassay on cabbage seedlings; type: in vivo; conditions: 72 h, 200 ppm foliar spray on cabbage seedlings, graded after three days, read-out: GPA % Control (or Mortality) rating
Protocol: Bioassay for GPA was prepared as follows: Cabbage seedlings grown in 3-inch pots, with 2-3 small (3-5 cm) true leaves, were used as test substrate. The seedlings were infested with 20-50 GPA (adult and nymph stages) one day prior to chemical application. Four pots with individual seedlings were used for each treatment. The tested compounds (2 mg) were dissolved in 2 mL of acetone/methanol (1:1) solvent to form stock solutions of 1000 ppm tested compound. The stock solutions were diluted five times with an aqueous solution containing 0.025% TWEEN® 20 surfactant, which is polyoxyethylene (20) sorbitan monolaurate, to obtain the solution at 200 ppm tested compound. A hand-held aspirator-type sprayer was used for spraying the solution to both sides of cabbage leaves until runoff. The control plants (solvent check) were sprayed with the diluent only containing 20% by volume of acetone/methanol (1:1) solvent. Treated plants were held in a holding room for three days at approximately 25° C. and ambient relative humidity (RH) prior to grading. Evaluation was conducted by counting the number of live aphids per plant under a microscope. Percent control was measured by using Abbott's correction formula (W. S. Abbott, “A Method of Computing the Effectiveness of an Insecticide,” J. Econ. Entomol. 18 (1925), pp. 265-267) as follows. Corrected % Control=100*(X−Y)/X
X=No. of live aphids on solvent check plants and
Y=No. of live aphids on treated plants
(§1) The comparative compounds were tested for insecticidal activities against GPA and WF pests using the same test protocols described above for the disclosed compounds.

[2] = test system: Sweetpotato Whitefly-crawler (Bemisia tabaci) (WF) (BEMITA); experiment: Sweetpotato whitefly-crawler (WF) foliar spray assay on cotton plants; type: in vivo; conditions: 216 h, 200 ppm foliar spray on cotton plants, graded after 9 days, read-out: WF % Control (or Mortality) rating
Protocol: Foliar spray assay for WF was prepared as follows: Cotton plants (Gossypium hirsutum) grown in 3-inch pots, with 1 small (4-5 cm) true leaf, were used as test substrate. The plants were infested with 200-400 whitefly eggs 4-5 days prior to chemical application. Four pots with individual plants were used for each treatment. Tested compounds (2 mg) were dissolved in 1 mL of acetone solvent, forming stock solutions of 2000 ppm tested compound.
The stock solutions were diluted ten times with 0.025% TWEEN® 20 surfactant in H2O (diluents) to obtain the solution at 200 ppm tested compound. A hand-held aspirator-type sprayer was used for spraying the solution to both sides of cotton leaves until runoff. The control plants (solvent check) were sprayed with the diluent only containing 10% by volume of acetone solvent. Treated plants were held in a holding room for 9 days at approximately 25° C. and ambient relative humidity (RH) prior to grading. Evaluation was conducted by counting the number of live 3-4 nymph stage per plant under a microscope. Percent control was measured by using Abbott's correction formula (W. S. Abbott, “A Method of Computing the Effectiveness of an Insecticide,” J. Econ. Entomol. 18 (1925), pp. 265-267) as follows. Corrected % Control=100*(X−Y)/X
X=No. of live nymphs on solvent check plants and
Y=No. of live nymphs on treated plants.
as §1

[3] = Abbott-corrected % control, disclosed compounds (TABLE 2)
[4] = same protocol, comparative compounds (TABLE 3)

O=C1c2cn(-c3cccnc3)nc2CCN1CC=NOCc1ccccc1 (racemic) [Compound P27, 2-(4-oxo-2-(pyridin-3-yl)-2,4,6,7-tetrahydro-5H-pyrazolo[4,3-c]pyridin-5-yl)acetaldehyde O-benzyl oxime]
mortality at 200 ppm [1, 3]: 80 to 100% | mortality at 200 ppm [2, 3]: 80 to 100%

O=C1c2cn(-c3cccnc3)nc2CCN1CC(=NOCc1ccccc1)c1ccccc1 (racemic) [Compound P36, 5-(2-((benzyloxy)imino)-2-phenylethyl)-2-(pyridin-3-yl)-2,5,6,7-tetrahydro-4H-pyrazolo[4,3-c]pyridin-4-one]
mortality at 200 ppm [1, 3]: 0 to 80% | mortality at 200 ppm [2, 3]: 80 to 100%

CON=CCN1CCc2nn(-c3cccnc3)cc2C1=O (single isomer, unassigned) [Compound P26, 2-(4-oxo-2-(pyridin-3-yl)-2,4,6,7-tetrahydro-5H-pyrazolo[4,3-c]pyridin-5-yl)acetaldehyde O-methyl oxime]
mortality at 200 ppm [1, 3]: 80 to 100%

CON=C(C)CN1CCc2nn(-c3cccnc3)cc2C1=O (single isomer, unassigned) [Compound P30, 5-(2-(methoxyimino)propyl)-2-(pyridin-3-yl)-2,5,6,7-tetrahydro-4H-pyrazolo[4,3-c]pyridin-4-one]
mortality at 200 ppm [1, 3]: 80 to 100% | mortality at 200 ppm [2, 3]: 80 to 100%

CC(CN1CCc2nn(-c3cccnc3)cc2C1=O)=NOCc1ccccc1 (single isomer, unassigned) [Compound P31, 5-(2-((benzyloxy)imino)propyl)-2-(pyridin-3-yl)-2,5,6,7-tetrahydro-4H-pyrazolo[4,3-c]pyridin-4-one]
mortality at 200 ppm [1, 3]: 80 to 100% | mortality at 200 ppm [2, 3]: 80 to 100%

CON=C(CN1CCc2nn(-c3cccnc3)cc2C1=O)c1ccccc1 (single isomer, unassigned) [Compound P32, 5-(2-(methoxyimino)-2-phenylethyl)-2-(pyridin-3-yl)-2,5,6,7-tetrahydro-4H-pyrazolo[4,3-c]pyridin-4-one]
mortality at 200 ppm [1, 3]: 80 to 100% | mortality at 200 ppm [2, 3]: 0 to 80%

CON=C(CN1CCc2nn(-c3cccnc3)cc2C1=O)c1cccc(C(F)(F)F)c1 (single isomer, unassigned) [Compound P34, 5-(2-(methoxyimino)-2-(3-(trifluoromethyl)phenyl)ethyl)-2-(pyridin-3-yl)-2,5,6,7-tetrahydro-4H-pyrazolo[4,3-c]pyridin-4-one]
mortality at 200 ppm [1, 3]: 80 to 100%

CON=C(CN1CCc2nn(-c3cccnc3)cc2C1=O)c1ccc(C(F)(F)F)cc1 (single isomer, unassigned) [Compound P35, 5-(2-(methoxyimino)-2-(4-(trifluoromethyl)phenyl)ethyl)-2-(pyridin-3-yl)-2,5,6,7-tetrahydro-4H-pyrazolo[4,3-c]pyridin-4-one]
mortality at 200 ppm [1, 3]: 80 to 100%

O=C1c2cn(-c3cccnc3)nc2CCN1CC(=NOCc1ccccc1)c1cccc(C(F)(F)F)c1 (single isomer, unassigned) [Compound P38, 5-(2-((benzyloxy)imino)-2-(3-(trifluoromethyl)phenyl)ethyl)-2-(pyridin-3-yl)-2,5,6,7-tetrahydro-4H-pyrazolo[4,3-c]pyridin-4-one]
mortality at 200 ppm [1, 3]: 0 to 80% | mortality at 200 ppm [2, 3]: 0 to 80%

O=C1c2cn(-c3cccnc3)nc2CCN1CC(=NOCc1ccccc1)c1ccc(C(F)(F)F)cc1 (single isomer, unassigned) [Compound P39, 5-(2-((benzyloxy)imino)-2-(4-(trifluoromethyl)phenyl)ethyl)-2-(pyridin-3-yl)-2,5,6,7-tetrahydro-4H-pyrazolo[4,3-c]pyridin-4-one]
mortality at 200 ppm [1, 3]: 0 to 80% | mortality at 200 ppm [2, 3]: 0 to 80%

O=C1c2cn(-c3ccccn3)nc2CCN1c1ccc(C(F)(F)F)cn1 [CE6, 2-(2-Pyridyl)-5-[5-(trifluoromethyl)-2-pyridyl]-6,7-dihydropyrazolo[4,3-c]pyridin-4-one, reference compound]
mortality at 200 ppm [1, 4]: 0 to 80% | mortality at 200 ppm [2, 4]: < 0%

CON(C)C(=O)CN1CCc2nn(-c3cccnc3)cc2C1=O [Compound CA3, N-methoxy-N-methyl-2-(4-oxo-2-(pyridin-3-yl)-2,4,6,7-tetrahydro-5H-pyrazolo[4,3-c]pyridin-5-yl)acetamide]
mortality at 200 ppm [1, 3]: 80 to 100% | mortality at 200 ppm [2, 3]: 80 to 100%

CC(=O)CN1CCc2nn(-c3cccnc3)cc2C1=O [Compound CA4, 5-(2-oxopropyl)-2-(pyridin-3-yl)-2,5,6,7-tetrahydro-4H-pyrazolo[4,3-c]pyridin-4-one]
mortality at 200 ppm [1, 3]: 80 to 100%

O=C1NCCc2nn(-c3ccccn3)cc21 [Compound CE1, 2-(pyridin-2-yl)-6,7-dihydro-2H-pyrazolo[4,3-c]pyridin-4(5H)-one, reference compound]
mortality at 200 ppm [1, 4]: < 0% | mortality at 200 ppm [2, 4]: 0 to 80%

CSCN1CCc2nn(-c3ccncc3)cc2C1=O [Compound CE2, 5-(methylsulfanylmethyl)-2-(4-pyridyl)-6,7-dihydropyrazolo[4,3-c]pyridin-4-one, reference compound]
mortality at 200 ppm [1, 4]: 0 to 80% | mortality at 200 ppm [2, 4]: 0 to 80%

CSCN1CCc2nn(-c3ccccn3)cc2C1=O [Compound CE3, 5-(Methylsulfanylmethyl)-2-(2-pyridyl)-6,7-dihydropyrazolo[4,3-c]pyridin-4-one, reference compound]
mortality at 200 ppm [1, 4]: < 0% | mortality at 200 ppm [2, 4]: < 0%

O=C1c2cn(-c3ccccn3)nc2CCN1c1cccc(OC(F)(F)F)c1 [Compound CE4, 2-(2-Pyridyl)-5-[3-(trifluoromethoxy)phenyl]-6,7-dihydropyrazolo[4,3-c]pyridin-4-one, reference compound]
mortality at 200 ppm [1, 4]: < 0% | mortality at 200 ppm [2, 4]: < 0%

O=C1c2cn(-c3ccccn3)nc2CCN1c1cccc(C(F)(F)F)n1 [Compound CE5, reference compound]
mortality at 200 ppm [1, 4]: < 0% | mortality at 200 ppm [2, 4]: < 0%

O=C1c2cn(-c3ccccn3)nc2CCN1c1cc(C(F)(F)F)ccn1 [Compound CE7, 2-(2-Pyridyl)-5-[4-(trifluoromethyl)-2-pyridyl]-6,7-dihydropyrazolo[4,3-c]pyridin-4-one, reference compound]
mortality at 200 ppm [1, 4]: 0 to 80% | mortality at 200 ppm [2, 4]: < 0%

O=C1c2cn(-c3cccnc3)nc2CCN1CC1CC1 [Compound F1, 5-(cyclopropylmethyl)-2-(pyridin-3-yl)-6,7-dihydro-2H-pyrazolo[4,3-c]pyridin-4(5H)-one]
mortality at 200 ppm [1, 3]: 80 to 100% | mortality at 200 ppm [2, 3]: 80 to 100%

O=C1NCCc2nn(-c3cccnc3)cc21 [Compound F2, 2-(pyridin-3-yl)-6,7-dihydro-2H-pyrazolo[4,3-c]pyridin-4(5H)-one]
mortality at 200 ppm [1, 3]: 80 to 100% | mortality at 200 ppm [2, 3]: 0 to 80%

O=C1c2cn(-c3cccnc3)nc2CCN1Cc1ccc(F)cc1 [Compound F3, 5-(4-fluorobenzyl)-2-(pyridin-3-yl)-6,7-dihydro-2H-pyrazolo[4,3-c]pyridin-4(5H)-one]
mortality at 200 ppm [2, 3]: 0 to 80%

O=C1c2cn(-c3cccnc3)nc2CCN1c1cccc(C(F)(F)F)c1 [Compound F4, 2-(3-Pyridyl)-5-[3-(trifluoromethyl)phenyl]-6,7-dihydropyrazolo[4,3-c]pyridin-4-one]
mortality at 200 ppm [1, 3]: 80 to 100% | mortality at 200 ppm [2, 3]: 0 to 80%

O=C1c2cn(-c3cccnc3)nc2CCN1c1ccnc(C(F)(F)F)c1 [Compound F5, 2-(3-Pyridyl)-5-[2-(trifluoromethyl)-4-pyridyl]-6,7-dihydropyrazolo[4,3-c]pyridin-4-one]
mortality at 200 ppm [1, 3]: 80 to 100% | mortality at 200 ppm [2, 3]: 0 to 80%

O=C(CN1CCc2nn(-c3cccnc3)cc2C1=O)c1cccc(C(F)(F)F)c1 [Compound P20, 5-(2-oxo-2-(3-(trifluoromethyl)phenyl)ethyl)-2-(pyridin-3-yl)-2,5,6,7-tetrahydro-4H-pyrazolo[4,3-c]pyridin-4-one]
mortality at 200 ppm [1, 3]: 80 to 100%

O=C(CN1CCc2nn(-c3cccnc3)cc2C1=O)c1ccc(C(F)(F)F)cc1 [Compound P21, 5-(2-oxo-2-(4-(trifluoromethyl)phenyl)ethyl)-2-(pyridin-3-yl)-2,5,6,7-tetrahydro-4H-pyrazolo[4,3-c]pyridin-4-one]
mortality at 200 ppm [1, 3]: 80 to 100%
